Experimental data as given in patent publication US20210260008A1, “COMBINATION THERAPY FOR TREATING CANCER” (THE JOHNS HOPKINS UNIVERSITY, priority 2018, published 2021).
Read-outs that look alike come from different tables or passages of the source.

Assays:
[1] = system: immune cells in tumor associated ascites (tumor microenvironment); experiment: Flow cytometry of immune cell populations in tumor associated ascites of VDID8 mice; type: in vivo, mouse; conditions: for Percentage of M1 macrophages (MHCII+ CD206−) / total numbers of lymphocytes in ascites: week 5; for T cell, NK cell, and IFNγ+ lymphocyte populations: week 5 post tumor injection; for MHC II positive (MHCII Hi, M1-like) macrophages: compared to vehicle; for total numbers of lymphocytes in ascites: compared to vehicle / single agents
Procedure: Ascites tissue harvest and processing. When ascites fluid is collected from the mice, the cells obtained represent the tumor microenvironment and can be further analyzed to help illustrate the mixed population of cells surrounding the tumor. Ascites was collected, filtered, incubated in ACK buffer (Quality Biological) to lyse red blood cells, and washed. The mononuclear cells collected were then cultured for four hours in RPMI (Corning) with 10% FBS in the presence of phorbol 12-myristate 13-acetate (PMA) and ionomycin to stimulate cells, and brefeldin A and monensin (Invitrogen 00-4975-93) to cause aggregation of secreted proteins inside the cell.
Flow cytometry. Cells were washed and blocked with FcR Blocking Reagent (Miltenyi Biotec 130-092-575) and stained for cell-surface markers including Live/Dead (eBioscience 65-0865-14), CD45 (BD Biosciences 563891), CD3 (BD Biosciences 560527), CD4 (BD Biosciences 563331), CD8 (BD Biosciences 563152), NK1.1 (BD Biosciences 562921), F4/80 (BioLegend 123113), CD11b (BioLegend 101222), MHC II (isotype control 400627; BioLegend 107619), CD206 (BioLegend 141708), CD11c (BD Biosciences 564079), Ly6C (BD Biosciences 562728), Ly6G (BD Biosciences 563005), CD80 (BD Biosciences 553769), and CD86 (BD Biosciences 558703). Cells were permeabilized and stained for intracellular IFNγ (isotype control 554686; BD Biosciences 554413). Flow cytometry acquisition was performed on an LSR II cytometer (BD Biosciences), and data were analyzed using FlowJo software version 10.2.
Flow sorting. Lysed and processed bulk ascites cells were blocked with FcR Blocking Reagent (Miltenyi Biotec 130-092-575) and stained for cell-surface markers including Live/Dead (eBioscience 65-0865-14), CD45 (BD Biosciences 563891), F4/80 (BioLegend 123113), CD11b (BioLegend 101222), MHC II (isotype control 400627; BioLegend 107619), CD206 (BioLegend 141708), and CD11c (BD Biosciences 564079). Prepared cells were suspended in PBS and sorted immediately on a BSL-2 FACSAria II. M1 macrophages were sorted on a gate as follows: CD45+ L/D− F4\80+ CD11b+ MHC II+ CD206− CD11c−. M2 macrophages were sorted on a gate as follows: CD45+ L/D− F4\80+ CD11b+ MHC II− CD206+ CD11c−.

VDID8 cells = experiment: HPLC analysis of polyamine levels in cultured, treated VDID8 cells; type: cell-based, mouse; conditions: in vitro; 500 nM AZA 10 days, 5 mM DFMO 3 days
Procedure: (§1) FIG. 6A-6B. DFMO treatment of VDID8 cells in vitro reduces putrescene and spermidine levels. FIG. 6A: VDID8 cells were cultured in 10% FBS RPMI+gentamicin for one week prior to beginning 10 day treatment. Cells were treated with 500 nM AZA/saline for 10 days and 5 mM DFMO/water for 3 days. AZA+DFMO cells were treated with 500 nM AZA for the first 7 days, and 500 nM AZA + 5 mM DFMO for the final 3 days of treatment. High-performance liquid chromatography (HPLC) analysis of polyamine levels in cultured, treated VDID8 cells are shown. n=3. FIG. 6B: Bulk ascites fluid was collected from individual mice treated with DFMO, AZA, or AZA+DFMO. Bulk ascites cells were lysed and washed and remaining cells were prepped for HPLC analysis of polyamine levels. n=4-10. All data were tested for a Gaussian distribution and found to be normal using Shapiro-Wilk test. Significance was determined using a one way ANOVA.
(§2) Polyamines. Polyamines were analyzed via high-performance liquid chromatography (HPLC) as previously described (36).

bulk ascites cells = experiment: HPLC analysis of polyamine levels in bulk ascites cells from treated mice; type: in vivo, mouse; conditions: bulk ascites cells from treated animals
Procedure: as §1, §2

[2] = cited from earlier work
2208L breast tumors = experiment: 2208L breast tumor mouse model
Excerpt: Significance determined using log-rank Mantel-Cox test.
Tumor size as measured once weekly in mice bearing 2208L breast tumor xenografts (week 6 post tumor implant).
Mature or activated dendritic cells in the tumor microenvironment of the 2208L breast cancer model, shown as a percentage of dendritic cells.

[3] = system: VEGF-β-Defensin ID8 (VDID8) syngeneic mouse ovarian surface epithelial (MOSE) cells; experiment: VDID8 syngeneic ovarian cancer mouse model: tumor burden (ascites volume) and survival; conditions: for median survival / overall survival / tumor burden (ascites volume): VDID8 mice; for median survival / overall survival: AZA 0.5 mg/kg i.p., 2% DFMO in water; for tumor burden (ascites volume): treated vs vehicle; for tumor burden (ascites volume) compared with combination therapy: second ascites drain, week 5 post tumor injection
Procedure: Mice were injected i.p. with 250,000 VEGF-DEFB ID8 MOSE cells (VDID8). 0.5 mg/kg of AZA was given i.p. 5 days a week, every other week. 2% DFMO was provided in water bottles. Mice were treated throughout the duration of the experiment. Upon 25-30% weight gain, ascites fluid was drained from mice and processed for analysis of the tumor microenvironment. FIG. 1B: Tumor burden, represented by ascites volume, 5 weeks post tumor injection. Data is from the second ascites drain procedure, the first was 4 weeks post tumor injection. Representative data (mean +/−SEM shown). n=10; four biological replicates. Data were tested for a Gaussian distribution using Shapiro-Wilk test and found not to be normal. Significance was determined using Kruskal Wallis test; statistical outliers removed using Peirce's criterion. FIG. 1C: Representative survival curve (median survival in days); n=10; four biological replicates. Significance determined using log-rank Mantel-Cox test.
Animals. Female C57BL/6NHsd wild-type (WT) mice (7-8 wk old) were purchased from Envigo International Holdings, Inc. (Indianapolis, Ind.). Mice were housed at the Johns Hopkins Kimmel Cancer Center Animal Resources Core and cared for in accordance with the policies of The Johns Hopkins University Animal Care and Use Committee and our approved animal protocol.
Syngeneic mouse model. 250,000 VEGF-β-Defensin ID8 (VDID8) syngeneic mouse ovarian surface epithelial (MOSE) cells were injected intraperitoneally into wild-type (WT) C57BL/6 mice.
Mice were treated with 0.5 mg/kg AZA/saline, Monday through Friday, every other week and continuous 2% DFMO in drinking water.
Mice were treated IP with AZA (0.5 mg/kg) or saline vehicle, DFMO (2% in water), or combination AZA and DFMO beginning three days post tumor injection (FIG. 1A).

[4] = system: LPS-stimulated macrophages; conditions: LPS-stimulated macrophages in vitro (ref. 48); cited from earlier work

| SMILES | total macrophage populations in the tumor microenvironment ([1]; ascites) | Percentage of M1 macrophages (MHCII+ CD206−) ([1]; ascites) | T cell, NK cell, and IFNγ+ lymphocyte populations ([1]; ascites) | MHC II positive (MHCII Hi, M1-like) macrophages [1] | total numbers of lymphocytes in ascites [1] | putrescine and spermidine levels (VDID8 cells) | polyamine levels (putrescine, spermidine, spermine) (bulk ascites cells) | solubility ([2]; acetone, ethanol and methyl ketone) | solubility ([2]; dimethylsulfoxide (DMSO)) | solubility ([2]; ethanol/water (50/50), propylene glycol and polyethylene glycol) | solubility ([2]; water, water-saturated octanol, 5% dextrose in water, N-methyl-2-pyrrolidone, normal saline and 5% Tween 80 in water) | mature or activated dendritic cells as a percentage of dendritic cells (2208L breast tumors; tumor microenvironment of 2208L model) | tumor burden / tumor size (2208L breast tumors; weeks 3 through 6 post tumor implant surgery) | median survival [3] | overall survival [3] | tumor burden (ascites volume) [3] | tumor burden (ascites volume) compared with combination therapy [3] | NO production [4] | tumor volume (2208L breast tumors; measured once weekly, week 6 post tumor implant) |
| --- | --- | --- | --- | --- | --- | --- | --- | --- | --- | --- | --- | --- | --- | --- | --- | --- | --- | --- | --- |
| Nc1ncn([C@@H]2O[C@H](CO)[C@@H](O)[C@H]2O)c(=O)n1 [AZA, 4-amino-1-β-D-ribofuranozyl-s-triazin-2(1H)-one] | consistently decreased | increased | significant increases | increased | significantly increased | stimulatory effect | No significant changes | insoluble | soluble | slightly soluble | sparingly soluble | increases activation | no impact on tumor size | approximately 44 days | significantly increased survival | decreased tumor burden | higher tumor burden |  |  |
| NCCCC(N)(C(=O)O)C(F)F (centres unmarked) [DFMO, 2-(difluoromethyl)-2,5-diaminopentanoic acid] |  | increased | significant increases | increased | significantly increased | significant decrease | decreased (although not significantly) |  |  |  |  |  |  | approximately 44 days | significantly increased survival | decreased tumor burden | higher tumor burden | potentiate NO production | maintains low tumor volumes |
